Source: patent US8193369B2, “Benzimidazole cannabinoid agonists” (Janssen Pharmaceutica NV, priority 2007, dated 2012)

The compounds below were run against T1, human CB2 (hCB2) receptor (Homo sapiens, UniProt P34972) (assay: Inhibition of forskolin-activated cAMP production upon activation of human CB2 receptor (HTRF)). Details: CHO-K1 cells stably transfected with hCB2; 15 μM forskolin; pEC50=-log(EC50); relative to WIN55212-2.
T1 construct: expressed in transfected cells; host or cells: CHO-K1
Assay type: cell-based
Description: D. Pharmacological Examples D.1 Inhibition of cAMP in Response to Activation of the Human CB2 Receptors
Functional activity of the test compounds was assessed by measuring their potency to inhibit forskolin-activated cAMP production upon activation of human CB2 (hCB2) receptor through homogenous time resolved fluorescence (HTRF) assays.
CHO-K1 cells stably transfected with hCB2 were grown up to 80-90% confluence in T175 Falcon flasks in DMEM/NUT MIX F-12 culture medium complemented with 2% Solution A (5.10^6 IU/l penicillin G, 5 g/l streptomycin sulphate, 5.5 g/l pyruvate, 14.6 g/l L-glutamine, 1M NaOH) and 10% foetal calf serum. Before the experiments, medium was removed, cells were washed with PBS/EDTA (140 mM NaCl, 1 mM Na2-EDTA, 8 mM Na2HPO4.2H2O, 8.5 mM KH2PO4, 2.7 mM KCl, 21 mM glucose), resuspended in stimulation buffer (HBSS 1×, IBMX 1 mM, Hepes 5 mM, MgCl2 10 mM, BSA 0.1%, pH 7.4). Cells were diluted to a concentration of 10^6 cells/ml for hCB2 experiments. Assays were performed using the cAMP Dynamic HTRF kit (CIS bio international, France) according to the recommendations of the manufacturer.
For CB2, each well of a 384 flat bottom black polystyrene assay plate (Costar) was filled with 10 μl stimulation buffer containing 15 μM forskolin and either test compound (in 3% DMSO), 3% DMSO or 10 μM Win55212-2 (in 3% DMSO). Then, 20 μl of the diluted hCB2-CHO-K1 cells was added (20,000 cells/well). After 30 minutes incubation in dark at room temperature, 10 μl cAMP-XL665 and 10 μl anti-cAMP cryptate (both at a final dilution of 1/100) was added to the cells.
After equilibration of the reaction mixtures for 1 to 24 hours in dark at room temperature, fluorescence was measured at 665 nm and 620 nm using a Discovery microplate fluorescence counter (Perkin Elmer), and the signal ratio of 665 nm/620 nm was calculated. The signal ratios of the test compounds were expressed relative to the signal ratios of the DMSO control (maximal signal ratio, no inhibition of cAMP) and WIN55212-2 for hCB2, respectively (minimal signal ratio, maximal inhibition of cAMP). From the dose response curves generated for each test compound, the dose at which 50% of the maximal inhibition of cAMP level is observed (EC50, expressed in the Table as pEC50=−log (EC50) values) and the level of inhibition reached with 10 μM of the test compound compared to WIN55212-2 (for hCB2) was calculated.

T1 sequence (P34972 whole entry): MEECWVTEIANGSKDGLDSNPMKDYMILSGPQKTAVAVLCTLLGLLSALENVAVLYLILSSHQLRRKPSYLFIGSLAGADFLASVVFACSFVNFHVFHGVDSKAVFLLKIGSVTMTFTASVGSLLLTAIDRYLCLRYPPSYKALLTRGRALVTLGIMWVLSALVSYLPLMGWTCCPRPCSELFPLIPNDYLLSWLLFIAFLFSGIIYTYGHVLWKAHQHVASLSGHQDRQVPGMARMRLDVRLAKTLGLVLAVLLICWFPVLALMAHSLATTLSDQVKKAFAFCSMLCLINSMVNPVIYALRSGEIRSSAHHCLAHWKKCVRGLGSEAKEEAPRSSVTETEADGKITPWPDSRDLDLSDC

Row | Structure (SMILES) | EC50 [nM] | CB2 pEC50
1 | CC(=O)N1CCC(Cn2c(C(C)(C)C)nc3cc(S(=O)(=O)Cc4ccccc4)ccc32)CC1 [Co. No. 73] | 2.34 | –
2 | CCS(=O)(=O)c1ccc2c(c1)nc(C(C)(C)C)n2CC1CCN(C(C)=O)CC1 [compound 1] | 8.51 | –
3 | CC(=O)N1CCC(Cn2c(C(C)(C)C)nc3cc(S(=O)(=O)CCCC(F)(F)F)ccc32)CC1 [compound 3] | 15.5 | –
4 | CC(=O)N1CCC(Cn2c(C(C)(C)C)nc3cc(S(=O)(=O)CCCC#N)ccc32)CC1 [compound 10] | 21.9 | –
5 | COc1ccc(CSc2ccc3c(c2)nc(C(C)(C)C)n3CC2CCN(C(C)=O)CC2)cc1 [compound 11] | 20.4 | –
6 | COc1ccc(CS(=O)(=O)c2ccc3c(c2)nc(C(C)(C)C)n3CC2CCN(C(C)=O)CC2)cc1 [compound 12] | 158 | –
7 | CC(=O)N1CCC(Cn2c(C(C)(C)C)nc3cc(SCCCO)ccc32)CC1 [compound 13] | 8.71 | –
8 | CC(=O)N1CCC(Cn2c(C(C)(C)C)nc3cc(SCCC#N)ccc32)CC1 [compound 15] | 10 | –
9 | CC(=O)N1CCC(Cn2c(C(C)(C)C)nc3cc(SCc4ccc(F)cc4)ccc32)CC1 [compound 17] | 0.794 | –
10 | CC(=O)N1CCC(Cn2c(C(C)(C)C)nc3cc(Sc4ccc(C#N)cc4)ccc32)CC1 [compound 18] | 6.31 | –
11 | CC(=O)N1CCC(Cn2c(C(C)(C)C)nc3cc(S(=O)(=O)CCCO)ccc32)CC1 [compound 19] | – | 6.84
12 | COCCS(=O)(=O)c1ccc2c(c1)nc(C(C)(C)C)n2CC1CCN(C(C)=O)CC1 [compound 20] | – | 7.59
13 | CC(C)(C)c1nc2cc(SCCCO)ccc2n1CC1CCN(C=O)CC1 [compound 21] | 5.37 | –
14 | COCCSc1ccc2c(c1)nc(C(C)(C)C)n2CC1CCN(C=O)CC1 [compound 22] | 7.08 | –
15 | CC(=O)N1CCC(Cn2c(C(C)(C)C)nc3cc(S(=O)(=O)c4ccc(C#N)cc4)ccc32)CC1 [compound 23] | 3.72 | –
16 | CC(C)S(=O)(=O)c1ccc2c(c1)nc(C(C)(C)C)n2CC1CCS(=O)(=O)CC1 [compound 30] | 50.1 | –
17 | CC(=O)N1CCC(Cn2c(C(C)(C)C)nc3cc(SC4CCCC4)ccc32)CC1 [compound 32] | 1.29 | –
18 | CC(=O)N1CCC(Cn2c(C(C)(C)C)nc3cc(Sc4ccncc4)ccc32)CC1 [compound 33] | 4.47 | –
19 | CC(=O)N1CCC(Cn2c(C(C)(C)C)nc3cc(S(=O)(=O)C4CCCC4)ccc32)CC1 [compound 35] | – | 8.49

Row | Structure (SMILES) | EC50 [nM] | CB2 pEC50
20 | CC(C)(C)c1nc2cc(SCC3CC3)ccc2n1CC1CCN(C=O)CC1 [compound 37] | 1.32 | –
21 | CC(=O)N1CCC(Cn2c(C(C)(C)C)nc3cc(S(=O)(=O)C(C)C#N)ccc32)CC1 (centres unmarked) [compound 39] | 7.08 | –
22 | CC(=O)N1CCC(Cn2c(C(C)(C)C)nc3cc(SCC4CCC4)ccc32)CC1 [compound 41] | 1.17 | –
23 | CC(=O)N1CCC(Cn2c(C(C)(C)C)nc3cc(S(=O)(=O)C(C)(C)C#N)ccc32)CC1 [compound 42] | 5.5 | –
24 | CCS(=O)(=O)c1ccc2c(c1)nc(C(C)C)n2CC1CCN(C(C)=O)CC1 [compound 47] | 955 | –
25 | CC(=O)N1CCC(Cn2c(C(C)(C)C)nc3cc(Sc4ccccn4)ccc32)CC1 [compound 50] | 7.76 | –
26 | CCC(CC)Sc1ccc2c(c1)nc(C(C)(C)C)n2CC1CCN(C(C)=O)CC1 [compound 51] | 0.794 | –
27 | CC(=O)N1CCC(Cn2c(C(C)(C)C)nc3cc(SCCc4ccc(F)cc4)ccc32)CC1 [compound 52] | 3.98 | –
28 | CC(=O)N1CCC(Cn2c(C(C)(C)C)nc3cc(Sc4cccnc4)ccc32)CC1 [compound 54] | 2.29 | –
29 | CC(=O)N1CCC(Cn2c(C(C)(C)C)nc3cc(S(=O)(=O)C(C)(C)c4ccccc4)ccc32)CC1 [compound 55] | 93.3 | –
30 | CC(=O)N1CCC(Cn2c(C(C)(C)C)nc3cc(S(=O)(=O)CCc4ccc(F)cc4)ccc32)CC1 [compound 56] | 3.39 | –
31 | CC(=O)N1CCC(Cn2c(C(C)(C)C)nc3cc(Sc4c(Cl)cccc4Cl)ccc32)CC1 [compound 57] | 1.58 | –
32 | CC(=O)N1CCC(Cn2c(C(C)(C)C)nc3cc(Sc4ccc(F)cc4)ccc32)CC1 [compound 58] | 8.51 | –
33 | CCC(CC)S(=O)(=O)c1ccc2c(c1)nc(C(C)(C)C)n2CC1CCN(C(C)=O)CC1 [compound 61] | 2.51 | –
34 | CC(=O)N1CCC(Cn2c(C(C)(C)C)nc3cc(S(=O)(=O)c4cccnc4)ccc32)CC1 [compound 62] | 5.25 | –
35 | CC(=O)N1CCC(Cn2c(C(C)(C)C)nc3cc(S(=O)(=O)c4ccc[n+]([O-])c4)ccc32)CC1 [compound 63] | 15.5 | –
36 | CC(=O)N1CCC(Cn2c(C(C)(C)C)nc3cc(S(=O)(=O)C(C)C)ccc32)CC1 [compound 64] | 12.9 | –
37 | CCCC(CCC)Sc1ccc2c(c1)nc(C(C)(C)C)n2CC1CCN(C(C)=O)CC1 [compound 65] | 1.74 | –
38 | CC(=O)N1CCC(Cn2c(C(C)(C)C)nc3cc(Sc4cccs4)ccc32)CC1 [compound 66] | 2.24 | –

Row | Structure (SMILES) | EC50 [nM] | CB2 pEC50
39 | CC(=O)N1CCC(Cn2c(C(C)(C)C)nc3cc(S(=O)(=O)Cc4ccc([N+](=O)[O-])cc4)ccc32)CC1 [compound 69] | 5.89 | –
40 | CC(=O)N1CCC(Cn2c(C(C)(C)C)nc3cc(Sc4ccccc4Cl)ccc32)CC1 [compound 70] | 0.0871 | –
41 | CC(=O)N1CCC(Cn2c(C(C)(C)C)nc3cc(SCc4ccccc4)ccc32)CC1 [compound 72] | 12.9 | –
42 | CC(=O)Nc1ccc(CS(=O)(=O)c2ccc3c(c2)nc(C(C)(C)C)n3CC2CCN(C(C)=O)CC2)cc1 [compound 79] | 5.89 | –
43 | CC(=O)N1CCC(Cn2c(C(C)(C)C)nc3cc(S(=O)(=O)Cc4ccc(N(C)C(C)=O)cc4)ccc32)CC1 [compound 80] | ~46.8 | –
44 | COCCCOc1cccc(S(=O)(=O)c2ccc3c(c2)nc(C(C)(C)C)n3CC2CCN(C(C)=O)CC2)c1 [compound 86] | 5.37 | –
45 | CC(=O)N1CCC(Cn2c(C(C)(C)C)nc3cc(Sc4ccc(C(F)(F)F)cc4)ccc32)CC1 [compound 87] | ~10 | –
46 | CC(=O)N1CCC(Cn2c(C(C)(C)C)nc3cc(Sc4cccc(Cl)c4)ccc32)CC1 [compound 89] | ~0.11 | –
47 | CC(=O)N1CCC(Cn2c(C(C)(C)C)nc3cc(Sc4cccc(C(F)(F)F)c4)ccc32)CC1 [compound 91] | ~0.832 | –
48 | CC(=O)N1CCC(Cn2c(C(C)(C)C)nc3cc(S(=O)(=O)c4cccc(C(F)(F)F)c4)ccc32)CC1 [compound 92] | 4.07 | –
49 | CC(=O)N1CCC(Cn2c(C(C)(C)C)nc3cc(Sc4ccccc4C#N)ccc32)CC1 [compound 93] | ~0.24 | –
50 | CC(=O)N1CCC(Cn2c(C(C)(C)C)nc3cc(S(=O)(=O)c4ccccc4C#N)ccc32)CC1 [compound 94] | ~3.31 | –
51 | CC(=O)N1CCC(Cn2c(C(C)(C)C)nc3cc(Sc4cccc(OCCCC#N)c4)ccc32)CC1 [compound 95] | ~2.69 | –
52 | CC(=O)N1CCC(Cn2c(C(C)(C)C)nc3cc(S(=O)(=O)c4cccc(OCCCC#N)c4)ccc32)CC1 [compound 96] | 3.55 | –
53 | CC(=O)N1CCC(Cn2c(C(C)(C)C)nc3cc(Sc4cccc(N(C)C)c4)ccc32)CC1 [compound 97] | 4.79 | –
54 | CC(=O)N1CCC(Cn2c(C(C)(C)C)nc3cc(S(=O)(=O)c4cccc(N(C)C)c4)ccc32)CC1 [compound 98] | 4.57 | –
55 | CC(=O)N1CCC(Cn2c(C(C)(C)C)nc3cc(S(=O)(=O)c4cccc(OC(C)C)c4)ccc32)CC1 [compound 100] | 2.34 | –
56 | COc1cccc(OC)c1Sc1ccc2c(c1)nc(C(C)(C)C)n2CC1CCN(C(C)=O)CC1 [compound 101] | ~0.513 | –
